Paper PMC7956517, “Induction of Apoptosis and Regulation of MicroRNA Expression by (2E,6E)-2,6-bis-(4-hydroxy-3-methoxybenzylidene)-cyclohexanone (BHMC) Treatment on MCF-7 Breast Cancer Cells” (Molecules, 2021)

Experiments:
MCF-10A cells = test: MTT cell viability assay, MCF-10A; type: cell-based; conditions: Homo sapiens
Description: (§1) The MTT cell viability assay for MCF-7, MDA-MB-231 and MCF 10A cells were conducted according to a previously reported protocol. MCF-7, MDA-MB-231, and MCF-10A were seeded in a 96-well plate at a concentration of 0.8 × 10^5 cells/mL and left overnight in a CO2 incubator set at 37 °C. Then, BHMC with 2-fold dilution ranging between 180 and 3 µM was added to the respective cell lines while the last row of the 96-well plate served as untreated control cells. After 24, 48, and 72 h of incubation, 20 µL of 5 mg/mL MTT solution was added to all wells and the plate was further incubated for three hours. Then, 180 µL of supernatant was carefully discarded and added with 100 µL of DMSO to solubilize the purple crystals. Optical density was measured at 570 nm wavelength using ELISA Reader (Bio-tek Instrument, Winooski, Vermont, USA). The percentage of cell viability was calculated following deduction of the blank cell absorbance using the formula (Equation (1)):(1) Cell viability % =Absorbance of treated cells/Absorbance of untreated control× 100%
(§2) The dose–response curve was plotted, and the concentration that yields 50% inhibition of cell growth (IC50) was obtained as a parameter for cytotoxicity. Starting from this point, BHMC with IC50 value was used throughout the study to induce cell death. On the other hand, selectivity index (SI) was obtained by using the following formula (Equation (2)):(2) Selectivity index SI =IC50 of MCF−10A/IC50 of MCF−7 or MDA−MB−231

MDA-MB-231 cells = test: MTT cell viability assay, MDA-MB-231; type: cell-based, human; conditions: for IC50: Homo sapiens, MDA-MB-231, MTT
Description: as §1, §2

MCF-7 cells [1] = test: MTT cell viability assay, MCF-7; type: cell-based, human; conditions: for IC50: Homo sapiens, MCF7, MCF-7, MTT
Description: as §1, §2

MCF-7 cells [2] = test: Light and fluorescent (AO/PI) microscopic observation; type: cell-based, human; conditions: MCF-7, 8.2 µM of BHMC, 48 h
Description: (§3) MCF-7 cells were seeded at 0.8 × 10^5 cells/mL in a 6-well plate and left overnight in a CO2 incubator set at 37 °C. […] Untreated control was prepared simultaneously. After 24, 48, or 72 h of incubation, the cell was harvested using TrypLE (Gibco Thermo Fisher Scientific, Waltham, MA, USA), washed with phosphate buffer saline (PBS), and subjected to the following assays. All assays were tested with three biological replicates.
Morphology of control and BHMC-treated MCF-7 cells was observed under light microscope (Nikon, Minato City, Japan). For fluorescent microscope observation, control and BHMC-treated MCF-7 cells (2 × 10^5 cells) were stained with 10 μL of 100 μg/mL acridine orange (AO) and 100 μg/mL propidium iodide (PI) for 10 min. After that, the cells were washed and examined under fluorescent microscope (Nikon FC-35DX, Minato City, Japan) using an excitation filter and barrier filter at 450–490 nm and long pass filter of 520 nm.

MCF-7 cells [3] = test: Flow cytometry Annexin V apoptosis detection; type: cell-based, human; conditions: MCF-7, Annexin V/7ADD
Description: as §3
Cell apoptosis assay was conducted based on a study method with some changes. […] In brief, harvested cells were washed and re-suspended in 100 µL of PBS. […] Approximately, 10,000 cells in the population were captured. The experiment was qualitatively repeated for three times.

MCF-7 cells [4] = test: Flow cytometry cell cycle analysis; type: cell-based, human; conditions: MCF-7, BHMC at IC50 (8.2 µM in figure; 12.50 µM in methods)
Description: as §3
Cell cycle progression of control and BHMC-treated MCF-7 cells was evaluated by staining with BD Cycletest Plus kit (Becton Dickinson, Franklin Lakes, NJ, USA) and subjected to BD FACS Calibur flow cytometer (Becton Dickinson, USA) analysis. In brief, harvested cells were incubated with 250 µL of trypsin buffer for 10 min followed by addition of 200 µL of trypsin inhibitor containing RNase buffer. After 10 min of incubation, the samples were finally stained with 200 µL of PI solution. Flow cytometer analysis was carried out after 10 min of incubation with the PI stain solution. A minimum of 10,000 cells in the population was captured. Three independent experiments were repeated with similar parameter.

MCF-7 cells [5] = test: miRNA microarray analysis; type: cell-based, human
Description: (§4) Total RNAs including small RNAs were isolated from MCF-7 treated with BHMC using miRNeasy kit (Qiagen, Hilden, Germany) according to manufacturer’s instructions. The quality of extracted RNA was assessed by the NanoDrop-1000 Spectrophotometer (NanoDrop Technologies Inc., Wilmington, DE, USA) and Agilent 2100 Bioanalyzer, and samples with A260/A280 ratio between 1.8 to 2.1 and an RIN value of 8 and above was used for further analysis.
Total RNA (8 µL) of control and BHMC-treated MCF-7 cells was directly labelled using Flash Tag Biotin HSR Labeling kits (Affymetrix, Santa Clara, CA, USA) in accordance with the instructions of the manufacturer. RNA was heated to 80 °C for 10 min before labeling to inactivate any residual DNase activity. RNA was hybridized for 42 h to the GeneChip miRNA 2.0 array (Affymetrix, Santa Clara, CA, USA). The GeneChip miRNA 2.0 arrays contain 100% miRBase version 15 coverage of 131 organisms and contain probes for 3439 humans non-coding RNAs (ncRNAs), including 1105 miRNAs and 2334 other ncRNAs (including scaRNAs and snoRNAs). Washing and staining were automatically performed using the Affymetrix Fluidics Station 450 (Affymetrix, Santa Clara, CA, USA), and probe intensities were measured using the GeneChip® Scanner (Affymetrix, Santa Clara, CA, USA).
Data discussed in this publication have been deposited in the NCBI Gene Expression Omnibus and are accessible through the GEO Series accession number GSE155467. Using the gene expression workflow in Partek Genomics Suite software (Cat 4462922G, Partek Inc., St. Louis, MO, USA), the CEL files generated by the Affymetrix data file were converted into .nFMT files. […] Differentially expressed miRNAs (>5-fold change, p < 0.05) were identified using analysis of variance (ANOVA) analysis.

MCF-7 cells [6] = test: Real-time quantitative PCR of miRNAs expression; type: cell-based, human; conditions: qPCR, BHMC-treated vs untreated MCF-7
Description: as §4
One microgram (μg) of total RNA was used in reverse transcription and the process was conducted using the miScript II RT Kit (Qiagen/SABiosciences, Hilden, Germany) according to the manufacturer protocol. Quantitative RT-PCR was carried out using CFX96 (BioRad, Hercules, CA, USA). […] The miRNA-specific primers for miR-3195, miR-30a, miR-6813-5p, and miR-6132 were designed by miRprimer and commercially synthesized as listed in Table 3. The expression of putative miRNAs was evaluated using geNorm algorithms. PCR reactions were performed in triplicate for each sample. The relative amounts of miRNAs were normalized against reference miRNAs and the fold change for each miRNA was calculated by the 2^−ΔΔCt method.

MCF-7 cells [7] = test: Real-time quantitative PCR of mRNA expression (SNAIL, VEGF); type: cell-based, human; conditions: qPCR, BHMC-treated vs untreated MCF-7
Description: as §4
Real-time quantitative PCR was performed on SNAIL and VEGF, which were the target of miR-30a and miR-3195 [31]. One microgram (μg) of total RNA was reverse transcripted using the QuantiTect Reverse Transcription Kit (Qiagen, USA) according to the manufacturer protocol. Primers were designed using Primer-Blast (Table 2) and synthesized commercially. NEXpro qPCR Evagreen Master Mix (NEX Diagnostics, Gyeonggi-do, Korea) was used to perform the mRNA qPCR based on the manufacturer protocol. The qPCR system CFX96 (BioRad, USA) was used and the qPCR conditions were: 50 °C for 2 min, 95 °C for 10 min, and 40 cycles of 95 °C for 15 s, and 60 °C for 1 min. A final melting curve was performed to ensure that only one amplicon was present. The relative amounts of mRNAs were normalized against reference gene beta-actin (ACTB) as described previously and the fold change for each mRNA was calculated by the 2^−ΔΔCt method.

[8] = IC50 of MCF-10A / IC50 of MDA-MB-231, 24 h
[9] = IC50 of MCF-10A / IC50 of MDA-MB-231, 48 h
[10] = IC50 of MCF-10A / IC50 of MDA-MB-231, 72 h
[11] = IC50 of MCF-10A / IC50 of MCF-7, 24 h
[12] = IC50 of MCF-10A / IC50 of MCF-7, 48 h
[13] = IC50 of MCF-10A / IC50 of MCF-7, 72 h

COc1cc(/C=C/C(=O)CC(=O)/C=C/c2ccc(O)c(OC)c2)ccc1O [Curcumin, reference compound]
IC50 (MCF-10A cells; 24 h): 188 ± 4.52 µM | IC50 (MCF-10A cells; 48 h): 112 ± 4.57 µM | IC50 (MCF-10A cells; 72 h): 100 ± 4.31 µM | IC50 (MDA-MB-231 cells; 24 h): 32 ± 2.81 µM | IC50 (MDA-MB-231 cells; 48 h): 26 ± 2.33 µM | IC50 (MDA-MB-231 cells; 72 h): 23 ± 2.15 µM | SI MCF10A/MDA-MB-231 (MDA-MB-231 cells; [8]): 5.88 | SI MCF10A/MDA-MB-231 (MDA-MB-231 cells; [9]): 4.31 | SI MCF10A/MDA-MB-231 (MDA-MB-231 cells; [10]): 4.35 | IC50 (MCF-7 cells [1]; 24 h): 55.7 ± 2.77 µM | IC50 (MCF-7 cells [1]; 48 h): 45.1 ± 2.12 µM | IC50 (MCF-7 cells [1]; 72 h): 39.8 ± 1.51 µM | SI MCF10A/MCF7 (MCF-7 cells [1]; [11]): 3.37 | SI MCF10A/MCF7 (MCF-7 cells [1]; [12]): 2.48 | SI MCF10A/MCF7 (MCF-7 cells [1]; [13]): 2.51

COc1cc(/C=C2\CCC/C(=C\c3ccc(O)c(OC)c3)C2=O)ccc1O [BHMC, (2E,6E)-2,6-bis-(4-hydroxy-3-methoxybenzylidene)-cyclohexanone]
morphological changes, light microscope (MCF-7 cells [2]): reduced the MCF-7 cells number and severely distorted the MCF-7 cells shape | morphology, acridine orange and propidium iodide fluorescent microscopy (MCF-7 cells [2]): presented the morphological characteristics of apoptotic cells | IC50 (MCF-10A cells; 24 h): 180 ± 3.11 µM | IC50 (MCF-10A cells; 48 h): 108 ± 2.15 µM | IC50 (MCF-10A cells; 72 h): 98.4 ± 3.22 µM | IC50 (MDA-MB-231 cells; 24 h): 29.4 ± 3.15 µM | IC50 (MDA-MB-231 cells; 48 h): 20.1 ± 1.94 µM | IC50 (MDA-MB-231 cells; 72 h): 19.7 ± 3.14 µM | SI MCF10A/MDA-MB-231 (MDA-MB-231 cells; [8]): 6.14 | SI MCF10A/MDA-MB-231 (MDA-MB-231 cells; [9]): 5.38 | SI MCF10A/MDA-MB-231 (MDA-MB-231 cells; [10]): 5.00 | selectivity index (SI) MDA-MB-231 against MCF-10A (MDA-MB-231 cells; summary over 24, 48 and 72 h): > 5 | Early apoptotic cells (MCF-7 cells [3]; BHMC at IC50, 24 h): 10.34% | Late apoptotic/necrotic cells (MCF-7 cells [3]; BHMC at IC50, 24 h): 8.81% | Early apoptotic cells (MCF-7 cells [3]; BHMC at IC50, 72 h): 43.44% | Late apoptotic/necrotic cells (MCF-7 cells [3]; BHMC at IC50, 72 h): 38.22% | percentage of cells at G2/M phase (MCF-7 cells [4]; 24 h): 24.26% | percentage of cells at Sub G0/G1 phase (MCF-7 cells [4]; 24 h): 6.64% | percentage of cells at Sub G0/G1 phase (MCF-7 cells [4]; 72 h): 22.80% | downregulation of miR-6813-5p, miR-6132, miR-4725-3p, miR-1587, miR-6779-5p (MCF-7 cells [5]; BHMC-treated MCF-7): at least 30 folds | upregulation of top five overexpressed miRNAs (miR-184, miR-3195, miR-149-5p, miR-30a-3p, miR532-3p) (MCF-7 cells [5]; BHMC-treated MCF-7): at least 10 folds | hsa-miR-30a-3p Upregulated Fold Change (MCF-7 cells [5]; BHMC-treated vs control MCF-7): 12.9 | hsa-miR-149-5p Upregulated Fold Change (MCF-7 cells [5]; BHMC-treated vs control MCF-7): 13.06 | hsa-miR-184 Upregulated Fold Change (MCF-7 cells [5]; BHMC-treated vs control MCF-7): 17.58 | hsa-miR-532-3p Upregulated Fold Change (MCF-7 cells [5]; BHMC-treated vs control MCF-7): 11.73 | hsa-miR-1587 Downregulated Fold Change (MCF-7 cells [5]; BHMC-treated vs control MCF-7): −35.89 | hsa-miR-3195 Upregulated Fold Change (MCF-7 cells [5]; BHMC-treated vs control MCF-7): 16.21 | hsa-miR-4725-3p Downregulated Fold Change (MCF-7 cells [5]; BHMC-treated vs control MCF-7): −41.51 | hsa-miR-6132 Downregulated Fold Change (MCF-7 cells [5]; BHMC-treated vs control MCF-7): −61.96 | hsa-miR-6779-5p Downregulated Fold Change (MCF-7 cells [5]; BHMC-treated vs control MCF-7): −33.07 | hsa-miR-6813-5p Downregulated Fold Change (MCF-7 cells [5]; BHMC-treated vs control MCF-7): −71.82 | miR-30a-3p expression increment (MCF-7 cells [6]): at least 5 fold | miR-3195 expression increment (MCF-7 cells [6]): at least 5 fold | miR-6132 downregulation (MCF-7 cells [6]): at least 10 folds | miR-6813-5p downregulation (MCF-7 cells [6]): at least 10 folds | SNAIL mRNA expression (MCF-7 cells [7]): downregulated | VEGF mRNA expression (MCF-7 cells [7]): downregulated | IC50 (MCF-7 cells [1]; 24 h): 23.5 ± 2.41 µM | IC50 (MCF-7 cells [1]; 48 h): 12.5 ± 1.87 µM | IC50 (MCF-7 cells [1]; 72 h): 11 ± 1.33 µM | SI MCF10A/MCF7 (MCF-7 cells [1]; [11]): 7.66 | SI MCF10A/MCF7 (MCF-7 cells [1]; [12]): 8.64 | SI MCF10A/MCF7 (MCF-7 cells [1]; [13]): 8.96 | selectivity index (SI) MCF-7 against MCF-10A (MCF-7 cells [1]; summary over 24, 48 and 72 h): > 7
